How the values were obtained:
myocardium = experiment: Regional myocardial blood flow, coronary occlusion and reperfusion; type: in vivo, dogs; conditions: any time point
Protocol: Catheters were placed in the left atrium and aorta, and a snare positioned around the left anterior descending coronary artery in 15 open-chest dogs. Regional myocardial blood flow was measured and transmural tissue samples were obtained using known techniques. Blood flow measurements and tissue samples were obtained prior to and just before release of a 12-minute coronary occlusion. The chest was closed and the animals allowed to awaken. Twenty-four hours later, the animals were anesthetized, the chest opened, blood flow measured, and tissue samples obtained. No hemodynamic measurements were made on the animals.
In seven animals, 200 mM AICAriboside (Sigma Chemical Co.) was infused into the left atrial catether at either 14 μmol/min (n=2) or 37 μmol/min (n=5) beginning with coronary occlusion and continuing for 24 hours. Eight control animals were infused with an equal volume of saline over 24 hours.
All comparisons between AICAriboside and saline treated animals were done by unpaired analyses.

[1] = tested on: cardiac and skeletal muscle; experiment: Creatine phosphate content of cardiac and skeletal muscle; type: in vivo, mongrel dogs; conditions: throughout the study (6.8±0.4 and 10.6±0.5 μmol/g at beginning)
Protocol: Animal Preparation--Seven adult mongrel dogs were anesthetized intramuscularly with 40 mg of morphine sulfate and intravenously with 80 mg/kg of chloralose, an endotraceal tube was inserted, and ventilation was maintained with an Emerson volume-cycled respirator and 100% oxygen. The heart was exposed through a left lateral thoracotomy, polyvinyl chloride catheters (3-mm outer diameter) were inserted into the left atrium and into the aorta through the right femoral artery, and a Statham TTQ electromagnetic flow meter probe was positioned around the ascending aorta. The aortic pressure catheter was connected to a Statham P23Db transducer (Statham Instruments, Inc., Oxnard, CA) with the zero reference at the midchest level. Aortic flow was measured with a Howell Instruments Series 1000 Flowmeter, and stroke volume and cardiac output were calculated from the aortic flow measurement. All hemodynamic data were monitored continuously throughout the course of the study. […]
After hemodynamic parameters had stabilized, regional myocardial blood flow was measured by injecting radioactively labled microspheres. […] Venous and arterial blood samples were also obtained at 42 min. of infusion, and regional myocardial blood flow was measured at 10 and 39 min. of AICAriboside infusion. […]

cardiac muscle = experiment: AICAriboside infusion in normal myocardium: nucleotide, nucleoside and base content of cardiac muscle biopsies; conditions: for TAN: total adenine nucleotide
[2] = cardiac muscle, 10 min postinfusion
[3] = cardiac muscle, 10 min postinfusion, P < 0.05 vs control
[4] = cardiac muscle, 15 min of AICAriboside infusion
[5] = cardiac muscle, 20 min postinfusion
[6] = cardiac muscle, 20 min postinfusion, P < 0.05 vs control
[7] = cardiac muscle, 30 min of AICAriboside infusion
[8] = cardiac muscle, 30 min of AICAriboside infusion, P < 0.05 vs control
[9] = cardiac muscle, 30 min postinfusion
[10] = cardiac muscle, 30 min postinfusion, P < 0.05 vs control
[11] = cardiac muscle, 42 min of AICAriboside infusion
[12] = cardiac muscle, 60 min postinfusion

NC(=O)c1ncn([C@@H]2O[C@H](CO)[C@@H](O)[C@H]2O)c1N [AICAriboside, 5-amino-4-imidazolecarboxamide riboside]
regional flow vs saline group (myocardium): no differences | creatine phosphate content [1]: did not vary significantly | myocardial content of CTP (cardiac muscle; AICAriboside infusion): no detectable change | mean content of AICAriboside in cardiac muscle greater than that of skeletal muscle (cardiac muscle; after 30 min of infusion): 66% | adenylosuccinate in biopsies (cardiac muscle; before, during or after infusion, lower limit of detection 3 nmol/g, wet weight): not detectable | adenylate energy charge (cardiac muscle; cardiac muscle, 0.929±0.003 before infusion, during course of experiment): did not vary | ADP (cardiac muscle; [2]): 0.83 ± 0.05 μmol/g, wet weight | AMP (cardiac muscle; [2]): 0.054 ± 0.007 μmol/g, wet weight | Hyp (hypoxanthine) (cardiac muscle; [2]): 0.016 ± 0.008 μmol/g, wet weight | Ino (inosine) (cardiac muscle; [2]): 0.009 ± 0.001 μmol/g, wet weight | ATP (cardiac muscle; [3]): 6.07 ± 0.17 μmol/g, wet weight | IMP (cardiac muscle; [3]): 0.018 ± 0.003 μmol/g, wet weight | ADP (cardiac muscle; [4]): 0.77 ± 0.06 μmol/g, wet weight | AMP (cardiac muscle; [4]): 0.056 ± 0.008 μmol/g, wet weight | ATP (cardiac muscle; [4]): 5.77 ± 0.24 μmol/g, wet weight | IMP (cardiac muscle; [4]): 0.020 ± 0.007 μmol/g, wet weight | ADP (cardiac muscle; [5]): 0.81 ± 0.04 μmol/g, wet weight | AMP (cardiac muscle; [5]): 0.054 ± 0.005 μmol/g, wet weight | Hyp (hypoxanthine) (cardiac muscle; [5]): 0.007 ± 0.002 μmol/g, wet weight | IMP (cardiac muscle; [5]): 0.017 ± 0.005 μmol/g, wet weight | Ino (inosine) (cardiac muscle; [5]): 0.007 ± 0.001 μmol/g, wet weight | ATP (cardiac muscle; [6]): 5.83 ± 0.14 μmol/g, wet weight | ADP (cardiac muscle; [7]): 0.82 ± 0.03 μmol/g, wet weight | AMP (cardiac muscle; [7]): 0.050 ± 0.005 μmol/g, wet weight | Hyp (hypoxanthine) (cardiac muscle; [7]): 0.013 ± 0.006 μmol/g, wet weight | IMP (cardiac muscle; [7]): 0.030 ± 0.021 μmol/g, wet weight | Ino (inosine) (cardiac muscle; [7]): 0.012 ± 0.001 μmol/g, wet weight | ATP (cardiac muscle; [8]): 5.89 ± 0.16 μmol/g, wet weight | ADP (cardiac muscle; [9]): 0.84 ± 0.03 μmol/g, wet weight | AMP (cardiac muscle; [9]): 0.055 ± 0.006 μmol/g, wet weight | Hyp (hypoxanthine) (cardiac muscle; [9]): 0.003 ± 0.002 μmol/g, wet weight | Ino (inosine) (cardiac muscle; [9]): 0.009 ± 0.002 μmol/g, wet weight | ATP (cardiac muscle; [10]): 5.98 ± 0.07 μmol/g, wet weight | IMP (cardiac muscle; [10]): 0.016 ± 0.003 μmol/g, wet weight | ADP (cardiac muscle; [11]): 0.77 ± 0.03 μmol/g, wet weight | AMP (cardiac muscle; [11]): 0.053 ± 0.007 μmol/g, wet weight | ATP (cardiac muscle; [11]): 5.77 ± 0.28 μmol/g, wet weight | IMP (cardiac muscle; cardiac muscle, 42 min of AICAriboside infusion, P < 0.05 vs control): 0.019 ± 0.006 μmol/g, wet weight | ADP (cardiac muscle; [12]): 0.82 ± 0.04 μmol/g, wet weight | AMP (cardiac muscle; [12]): 0.052 ± 0.006 μmol/g, wet weight | ATP (cardiac muscle; [12]): 5.72 ± 0.27 μmol/g, wet weight | Hyp (hypoxanthine) (cardiac muscle; [12]): 0.001 ± 0.001 μmol/g, wet weight | Ino (inosine) (cardiac muscle; [12]): 0.006 ± 0.001 μmol/g, wet weight | IMP (cardiac muscle; cardiac muscle, 60 min postinfusion, P < 0.05 vs control): 0.017 ± 0.003 μmol/g, wet weight | increase in IMP content (cardiac muscle; cardiac muscle, AICAriboside infusion): 3-4 fold | maximum UTP content (cardiac muscle; cardiac muscle, from basal 0.126±0.009, p<0.005): 0.157±0.006 μmol/g, wet weight | guanine nucleotide content (GDP+GTP) (cardiac muscle; cardiac muscle, significant at one time point only): tended to increase | dogs with guanine nucleotide pool remaining elevated (cardiac muscle; cardiac muscle, up to 60 min after infusion discontinued): 6 of 7 | adenosine content (cardiac muscle; cardiac or skeletal muscle, during infusion): did not increase | AMP and ADP content change (cardiac muscle; cardiac tissue, any time point): did not change significantly | increased ATP content (cardiac muscle; cardiac tissue, from 5.55±0.17, p<0.02): 6.07±0.17 μmol/g, wet weight | accumulation of AICAriboside-TP (cardiac muscle; cardiac vs skeletal muscle, quantitated with extinction coefficient of AICAR): greater in cardiac muscle | maximum TAN (total adenine nucleotide) (cardiac muscle; heart muscle, from basal 6.40±0.20, p<0.005): 6.96±0.20 μmol/g, wet weight | content of NAD^+ (cardiac muscle; heart, throughout infusion, did not vary): 0.64 ± 0.01 µmol/g | UTP pool increase (cardiac muscle; myocardial cells, following AICAriboside infusion): 25% | content of inosine and hypoxanthine (cardiac muscle; myocardial, throughout the study): only minimally increased | TAN (cardiac muscle; [3]): 6.96 ± 0.20 μmol/g, wet weight | TAN (cardiac muscle; [4]): 6.59 ± 0.29 μmol/g, wet weight | TAN (cardiac muscle; [6]): 6.70 ± 0.10 μmol/g, wet weight | TAN (cardiac muscle; [8]): 6.77 ± 0.16 μmol/g, wet weight | TAN (cardiac muscle; [10]): 6.87 ± 0.10 μmol/g, wet weight | TAN (cardiac muscle; [11]): 6.59 ± 0.27 μmol/g, wet weight | TAN (cardiac muscle; [12]): 6.59 ± 0.24 μmol/g, wet weight

From US4575498A, “Method for restoring depleted purine nucleotide pools” (priority 1983, dated 1986)
